# Test results taken from BindingDB's records for doi:10.1016/0960-894X(95)00091-7 (1995).
# How the values were obtained:
# [1] = Binding affinity towards cloned human 5-hydroxytryptamine 1D receptor beta was determined
# [2] = Compound was tested for its ability inhibit forskolin-stimulated activity of adenylate cyclase coupled to human 5-HT 1D-beta receptor in CHO-K1 cells
# [3] = Compound was tested for its affinity towards Alpha-2 adrenergic receptor
# [4] = Compound was tested for its ability inhibit forskolin-stimulated activity of adenylate cyclase coupled to human 5-hydroxytryptamine 1D receptor beta in CHO-K1 cells; value ranges from 2.8-6.5
# [5] = Compound was tested for its ability inhibit forskolin-stimulated activity of adenylate cyclase coupled to human 5-hydroxytryptamine 1D receptor beta in CHO-K1 cells; value ranges from 0.24-0.55
# [6] = as above; remark: listed apart in the source
# [7] = Compound was tested for its ability inhibit forskolin-stimulated activity of adenylate cyclase coupled to human 5-HT 1D-beta receptor in CHO-K1 cells; remark: listed apart in the source
smiles,measurement,setting,value
NCCc1c[nH]c2ccc(OCC(=O)N3CCN(c4ccccc4)CC3)cc12 [2-[3-(2-Amino-ethyl)-1H-indol-5-yloxy]-1-(4-phenyl-piperazin-1-yl)-ethanone],Ki,[1],0.6 nM
same,EC50,[2],0.45 nM
NCCc1c[nH]c2ccc(OCC(=O)N3CCN(c4cccc5ccccc45)CC3)cc12 [2-[3-(2-Amino-ethyl)-1H-indol-5-yloxy]-1-(4-naphthalen-1-yl-piperazin-1-yl)-ethanone],IC50,[3],> 1000 nM
same,EC50,[4],2.8 nM
same,Ki,[5],0.52 nM
COc1cccc(N2CCN(C(=O)COc3ccc4[nH]cc(CCN)c4c3)CC2)c1 [2-[3-(2-Amino-ethyl)-1H-indol-5-yloxy]-1-[4-(3-methoxy-phenyl)-piperazin-1-yl]-ethanone],Ki,[1],0.4 nM
same,EC50,[6],0.24 nM
Cc1ccccc1N1CCN(C(=O)COc2ccc3[nH]cc(CCN)c3c2)CC1,IC50,[3],> 10000 nM
CCCCCCCCCOc1ccc2[nH]cc(CCN)c2c1 [2-(5-Nonyloxy-1H-indol-3-yl)-ethylamine],EC50,[7],68 nM
